According to article PMC7849553 (Haematologica, 2020):

Legend:
[1] = target: mouse CLEC-2 (Fc-mCLEC-2) (Mus musculus, UniProt Q9JL99); test: biochemical
[2] = target: human CLEC-2 (hFc-CLEC-2) (Homo sapiens, UniProt Q9P126); test: biochemical
Chain of human CLEC-2 (hFc-CLEC-2) (Q9P126 55-229 limits assumed): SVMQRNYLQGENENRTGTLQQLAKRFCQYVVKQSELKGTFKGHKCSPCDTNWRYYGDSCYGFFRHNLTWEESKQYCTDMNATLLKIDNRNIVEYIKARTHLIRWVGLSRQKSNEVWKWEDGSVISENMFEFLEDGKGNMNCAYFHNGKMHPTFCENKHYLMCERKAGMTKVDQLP

Chain of mouse CLEC-2 (Fc-mCLEC-2) (Q9JL99 53-229 limits assumed): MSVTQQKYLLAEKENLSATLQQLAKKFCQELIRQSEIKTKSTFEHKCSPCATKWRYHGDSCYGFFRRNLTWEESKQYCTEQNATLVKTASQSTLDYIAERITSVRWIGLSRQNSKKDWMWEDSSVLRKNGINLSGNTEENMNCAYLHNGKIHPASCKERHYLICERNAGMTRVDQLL

Kd [1]: ~200 nM | Kd [2]: ~200 nM
SMILES: C=CC1=C(C)C2=Cc3c(C=C)c(C)c4[n]3[Fe]([Cl])[n]3c(c(C)c(CCC(=O)O)c3=CC3=NC(=C4)C(C)=C3CCC(=O)O)=CC1=N2 [hemin]
